The text below walks through data of patent US8623860B2, “Azetidine derivatives, pharmaceutical compositions and uses thereof” (Boehringer Ingelheim International GmbH, priority 2011, dated 2014).

Each structure is given as a SMILES string.

human ACC2, sequence (O00763 129-2458): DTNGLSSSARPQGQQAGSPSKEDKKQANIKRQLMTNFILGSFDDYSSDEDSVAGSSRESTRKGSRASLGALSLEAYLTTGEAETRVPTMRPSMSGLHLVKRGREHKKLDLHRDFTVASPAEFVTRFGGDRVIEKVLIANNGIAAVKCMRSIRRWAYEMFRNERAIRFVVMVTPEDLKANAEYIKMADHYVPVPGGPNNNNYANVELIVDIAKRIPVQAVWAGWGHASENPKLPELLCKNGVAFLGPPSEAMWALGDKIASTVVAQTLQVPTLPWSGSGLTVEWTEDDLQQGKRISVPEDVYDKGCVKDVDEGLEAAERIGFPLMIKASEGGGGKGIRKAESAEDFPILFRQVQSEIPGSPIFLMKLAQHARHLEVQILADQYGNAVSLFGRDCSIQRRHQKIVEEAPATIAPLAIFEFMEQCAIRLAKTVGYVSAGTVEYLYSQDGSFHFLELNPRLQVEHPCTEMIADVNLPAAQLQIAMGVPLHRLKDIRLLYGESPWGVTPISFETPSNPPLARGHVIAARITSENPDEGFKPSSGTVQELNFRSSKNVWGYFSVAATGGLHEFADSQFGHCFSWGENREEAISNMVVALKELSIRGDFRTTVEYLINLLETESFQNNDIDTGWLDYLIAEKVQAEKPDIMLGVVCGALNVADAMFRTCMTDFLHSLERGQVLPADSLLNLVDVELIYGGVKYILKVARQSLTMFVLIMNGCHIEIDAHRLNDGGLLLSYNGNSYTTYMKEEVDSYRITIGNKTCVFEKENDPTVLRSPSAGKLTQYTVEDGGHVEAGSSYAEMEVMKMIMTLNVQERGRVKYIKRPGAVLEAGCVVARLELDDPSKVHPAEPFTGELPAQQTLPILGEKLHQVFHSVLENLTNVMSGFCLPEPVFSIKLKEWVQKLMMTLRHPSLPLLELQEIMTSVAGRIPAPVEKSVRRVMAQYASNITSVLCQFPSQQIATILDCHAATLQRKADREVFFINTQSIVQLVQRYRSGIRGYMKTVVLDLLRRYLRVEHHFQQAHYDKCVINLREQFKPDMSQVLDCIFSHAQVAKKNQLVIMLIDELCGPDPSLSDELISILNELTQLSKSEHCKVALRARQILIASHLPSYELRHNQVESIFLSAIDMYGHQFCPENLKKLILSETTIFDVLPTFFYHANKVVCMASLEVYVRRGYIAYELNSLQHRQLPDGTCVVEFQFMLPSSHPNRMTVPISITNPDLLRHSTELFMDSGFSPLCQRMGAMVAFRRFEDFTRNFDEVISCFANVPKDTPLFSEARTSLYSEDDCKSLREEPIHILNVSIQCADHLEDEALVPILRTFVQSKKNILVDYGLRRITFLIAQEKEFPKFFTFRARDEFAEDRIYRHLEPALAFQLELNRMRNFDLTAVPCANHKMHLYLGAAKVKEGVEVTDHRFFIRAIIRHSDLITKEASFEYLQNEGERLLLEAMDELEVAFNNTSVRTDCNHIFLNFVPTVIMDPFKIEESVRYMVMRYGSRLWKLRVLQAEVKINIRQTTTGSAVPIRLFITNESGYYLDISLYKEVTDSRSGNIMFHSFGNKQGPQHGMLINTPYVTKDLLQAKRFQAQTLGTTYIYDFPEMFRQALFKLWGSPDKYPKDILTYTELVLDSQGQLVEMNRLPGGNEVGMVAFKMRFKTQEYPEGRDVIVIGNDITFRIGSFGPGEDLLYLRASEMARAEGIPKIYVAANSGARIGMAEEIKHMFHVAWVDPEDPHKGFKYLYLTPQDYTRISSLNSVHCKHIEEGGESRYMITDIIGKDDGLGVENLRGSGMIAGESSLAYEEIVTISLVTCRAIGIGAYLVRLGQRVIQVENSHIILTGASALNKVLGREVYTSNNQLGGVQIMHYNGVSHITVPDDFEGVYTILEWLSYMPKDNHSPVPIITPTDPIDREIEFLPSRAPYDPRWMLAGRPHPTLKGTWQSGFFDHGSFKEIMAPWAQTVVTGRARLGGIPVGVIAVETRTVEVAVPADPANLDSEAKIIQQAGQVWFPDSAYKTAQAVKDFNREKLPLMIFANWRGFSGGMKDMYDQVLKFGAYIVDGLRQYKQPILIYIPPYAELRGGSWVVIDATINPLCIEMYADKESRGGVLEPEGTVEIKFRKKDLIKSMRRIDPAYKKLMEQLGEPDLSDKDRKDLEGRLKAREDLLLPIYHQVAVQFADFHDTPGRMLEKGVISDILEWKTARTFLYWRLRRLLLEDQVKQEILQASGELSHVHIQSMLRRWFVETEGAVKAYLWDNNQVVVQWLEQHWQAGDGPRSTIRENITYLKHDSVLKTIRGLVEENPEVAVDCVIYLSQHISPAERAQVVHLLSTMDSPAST

The assay concerns the target human ACC2 (Homo sapiens (Human), UniProt O00763). In words: ACC2 assay, spectrophotometric 384 well assay (NADH-linked, coupled lactate dehydrogenase/pyruvate kinase reaction). Format: biochemical. The note with it: hACC2 construct lacking the 128 N-terminal amino acids; 25° C., 340 nm, 15 minutes. As to the method:
Spectrophotometric 384 Well Assay
Malonyl CoA formation by acetyl CoA carboxylases is stoichometrically linked to the consumption of ATP. ACC2 activity is measured in a NADH-linked kinetic method measuring ADP generated during the ACC reaction using a coupled lactate dehydrogenase/pyruvate kinase reaction.
For biological testing, a human ACC2 construct which lacks the 128 amino acids at the N-terminus for increased solubility (nt 385-6966 in Genbank entry AJ575592) is cloned. The protein is then expressed in insect cells using a baculoviral expression system. Protein purification is performed by anion exchange.
All compounds are dissolved in dimethyl sulfoxide (DMSO) to a concentration of 10 mM.
Assay reactions are then carried out in 384-well plates, with hACC2 in an appropriate dilution and at final assay concentrations (f.c.) of 100 mM Tris (pH 7.5), 10 mM trisodium citrate, 25 mM KHCC3, 10 mM MgCl2, 0.5 mg/ml BSA, 3.75 mM reduced L-glutathione, 15 U/ml lactate dehydrogenase, 0.5 mM phosphoenolpyruvate, 15 U/ml pyruvate kinase, compounds at different concentrations at final DMSO concentrations of 1%.
The enzymatic reaction is then started by addition of a mixture of NADH, acetyl Coenzyme A (both 200 μM f.c.) and ATP (500 uM f.c.). The decrease of the optical density (slope S) is then determined at 25° C. at a wavelength of 340 nm over 15 minutes in a spectrophotometric reader.
Each assay microtiter plate contains wells with vehicle instead of compound as controls for the non-inhibited enzyme (100% CTL; ‘HIGH’) and wells without acetyl-CoA as controls for non-specific NADH degradation (0% CTL; ‘LOW’).
The slope S is used for calculation of % CTL=(S(compound)−S(‘LOW’))/(S(‘HIGH’)−S(‘LOW’))*100. Compounds will give values between 100% CTL (no inhibition) and 0% CTL (complete inhibition).
For IC50 value determination, the sample slope in the presence of the test compound after subtraction of the low controls (S(compound)−S(‘LOW’)) are used.
An IC50 value is derived from the compound slopes at different dosages after subtraction of the low controls (S(compound)−S(‘LOW’)) by non-linear regression curve fitting (equation y=(A+((B−A)/(1+((C/x)^D))))).
In the following table the activity expressed as IC50 (μM) of compounds according to the invention is presented wherein the IC50 values are determined in the ACC2 assay as described hereinbefore. The term “Ex.” refers to the example numbers according to the following experimental section.
Turning to `CC(F)C(=O)N[C@@H](C)c1ccc(C2CN(c3ccc(OCC4CC4)cc3)C2)cc1` (some centres unmarked) [Example 3.55], it took 1.33 µM to reach half-maximal inhibition (IC50).
As to `C[C@H](NC(=O)C1CC1)c1ccc(C2CN(c3ccc(OCC4CC4)cc3)C2)cc1` [Example 3.56], half-maximal inhibition (IC50) required 0.7 µM.
The result for `C[C@H](NC(=O)c1cncs1)c1ccc(C2CN(c3ccc4c(c3)OCCO4)C2)cc1` [Example 3.57] reads 1.65 µM; that for `C[C@H](NC(=O)c1ccnnc1)c1ccc(C2CN(c3ccc(OCC4CC4)cc3)C2)cc1` [Example 3.58], 3.01 µM.
Compound `CC(=O)Nc1cc(C(=O)N[C@@H](C)c2ccc(C3CN(c4ccc(OCC5CC5)cc4)C3)cc2)ccn1` [Example 3.59] yielded an IC50 of 0.78 µM.
`Cc1cc(CC(=O)N[C@@H](C)c2ccc(C3CN(c4ccc(OCC5CC5)cc4)C3)cc2)on1` [Example 3.60] showed an IC50 of 1.17 µM.
The compound `CC(F)C(=O)N[C@@H](C)c1ccc(C2CN(c3ccc4c(c3)OCCO4)C2)cc1` (some centres unmarked) [Example 3.61] showed an IC50 of 2.52 µM.
The same measure for `CC(Cc1ccc(C2CN(c3ccc(OCC4CC4)cc3)C2)cc1)NC(=O)C1CCC1` (centres unmarked) [Example 3.62]: 2.91 µM; for `CC(Cc1ccc(C2CN(c3ccc(OCC4CC4)cc3)C2)cc1)NC(=O)C1(C)CC1` (centres unmarked) [Example 3.63]: 1.22 µM.
The same measure for `C[C@H](NC(=O)C1CC1)c1ccc(C2CN(c3ccc4c(c3)OCCO4)C2)cc1` [Example 3.64]: 2.46 µM; for `Cc1nocc1C(=O)N[C@@H](C)c1ccc(C2CN(c3ccc4c(c3)OCCO4)C2)cc1` [Example 3.65]: 1.18 µM; for `C=CCC(=O)N[C@@H](C)c1ccc(C2CN(c3ccc4c(c3)OCCO4)C2)cc1` [Example 3.66]: 0.97 µM.
For `CC(=O)NCCCC(=O)NC(C)Cc1ccc(C2CN(c3ccc(OCC4CC4)cc3)C2)cc1` (centres unmarked) [Example 3.67], the midpoint of inhibition, the IC50, lay at 1.68 µM.
In the case of `CCC(=O)N[C@@H](C)c1ccc(C2CN(c3ccc4c(c3)OCCO4)C2)cc1` [Example 3.68], the half-maximal inhibitory concentration (IC50) stood at 1 µM.
Consider `CC(=O)Nc1cc(C(=O)N[C@@H](C)c2ccc(C3CN(c4ccc5c(c4)OCCO5)C3)cc2)ccn1` [Example 3.69], for which inhibition was half-maximal at 2.4 µM (IC50).
`C[C@H](NC(=O)C(F)F)c1ccc(C2CN(c3ccc4c(c3)OCCO4)C2)cc1` [Example 3.70] had an IC50 of 1.02 µM.
For `C[C@H](NC(=O)c1cnn(C)c1)c1ccc(C2CN(c3ccc4c(c3)OCCO4)C2)cc1` [Example 3.71], the IC50 came to 1.69 µM.
Regarding `CC(=O)Nc1nc(C)c(C(=O)N[C@@H](C)c2ccc(C3CN(c4ccc5c(c4)OCCO5)C3)cc2)s1` [Example 3.72], the IC50 was found to be 1.97 µM.
`C[C@H](NC(=O)c1ccon1)c1ccc(C2CN(c3ccc4c(c3)OCCO4)C2)cc1` [Example 3.73] yielded an IC50 of 2.49 µM.
On to `Cc1oncc1C(=O)NC(C)Cc1ccc(C2CN(c3ccc(OCC4CC4)cc3)C2)cc1` (centres unmarked) [Example 3.74], for which the half-maximal inhibitory concentration (IC50) is 0.96 µM.
Turning to `C[C@H](NC(=O)C(C)(C)O)c1ccc(C2CN(c3ccc(OCC4CC4)cc3)C2)cc1` [Example 3.75], the half-maximal inhibitory concentration (IC50) worked out at 3.08 µM.
`Cc1oncc1C(=O)NC(C)Cc1ccc(C2CN(c3ccc4c(c3)OCCO4)C2)cc1` (centres unmarked) [Example 3.76] had a half-maximal inhibitory concentration (IC50) of 2.82 µM.
The same measure for `CC(Cc1ccc(C2CN(c3ccc(OCC4CC4)cc3)C2)cc1)NC(=O)c1ccon1` (centres unmarked) [Example 3.77]: 1.7 µM; for `C[C@H](NC(=O)CC#N)c1ccc(C2CN(c3ccc(OCC4CC4)cc3)C2)cc1` [Example 3.78]: 1.22 µM.
The result for `CCOC(=O)C1(F)CC1C(=O)NC(C)Cc1ccc(C2CN(c3ccc(OCC4CC4)cc3)C2)cc1` (centres unmarked) [Example 3.79] reads 2.3 µM.
Consider `C[C@H](NC(=O)CCO)c1ccc(C2CN(c3ccc(OCC4CC4)cc3)C2)cc1` [Example 3.80], for which the midpoint of inhibition, the IC50, lay at 2.44 µM.
The same measure for `C[C@H](NC(=O)c1ccon1)c1ccc(C2CN(c3ccc(OCC4CC4)cc3)C2)cc1` [Example 3.81]: 1.4 µM; for `C[C@H](NC(=O)CO)c1ccc(C2CN(c3ccc(OCC4CC4)cc3)C2)cc1` [Example 3.82]: 1.62 µM.
With `CCC(=O)NC(C)Cc1ccc(C2CN(c3ccc4c(c3)OCCO4)C2)cc1` (centres unmarked) [Example 3.83], the midpoint of inhibition, the IC50, lay at 3.13 µM.
`CC(Cc1ccc(C2CN(c3ccc4c(c3)OCCO4)C2)cc1)NC(=O)C(F)F` (centres unmarked) [Example 3.84] showed an IC50 of 3.6 µM.
The result for `C[C@H](NC(=O)C(F)F)c1ccc(C2CN(c3ccc(OCC4CC4)cc3)C2)cc1` [Example 3.85] reads 0.36 µM; that for `C[C@H](NC(=O)c1cncs1)c1ccc(C2CN(c3ccc(OCC4CC4)cc3)C2)cc1` [Example 3.86], 0.45 µM; that for `Cc1nocc1C(=O)N[C@@H](C)c1ccc(C2CN(c3ccc(OCC4CC4)cc3)C2)cc1` [Example 3.87], 0.47 µM.
For the compound `C[C@H](NC(=O)C(C)(F)F)c1ccc(C2CN(c3ccc(OCC4CC4)cc3)C2)cc1` [Example 3.88], the IC50 worked out at 0.53 µM.
Regarding `C[C@H](NC(=O)CF)c1ccc(C2CN(c3ccc(OCC4CC4)cc3)C2)cc1` [Example 3.89], the IC50 is 0.55 µM.
Consider `C[C@H](NC(=O)c1cnn(C)c1)c1ccc(C2CN(c3ccc(OCC4CC4)cc3)C2)cc1` [Example 3.90], for which it took 0.62 µM to reach half-maximal inhibition (IC50).
For `C=CCC(=O)N[C@@H](C)c1ccc(C2CN(c3ccc(OCC4CC4)cc3)C2)cc1` [Example 3.91], the 50% inhibitory concentration (IC50) turned out to be 0.63 µM.
For `CC(=O)N[C@@H](C)c1ccc(C2CN(c3ccnc(N(C)CC(F)F)n3)C2)cc1` [Example 4.1, (S)—N-(1-(4-(1-(2-((2,2-difluoroethyl)(methyl)amino)pyrimidin-4-yl)azetidin-3-yl)phenyl)ethyl)acetamide], it took 1.82 µM to reach half-maximal inhibition (IC50).
The same measure for `CC(=O)N[C@@H](C)c1ccc(C2CN(c3nc(N(C)CC(F)F)ncc3F)C2)cc1` [Example 4.2]: 1.01 µM.
The same measure for `CC(=O)N[C@@H](C)c1ccc(C2CN(c3nc(N(C)C)ncc3F)C2)cc1` [Example 4.3]: 1.51 µM; for `CC(=O)N[C@@H](C)c1ccc(C2CN(c3ccnc(OCC4CC4(F)F)c3F)C2)cc1` (stereo partly drawn) [Example 5.1, N-((1S)-1-(4-(1-(2-((2,2-difluorocyclopropyl)methoxy)-3-fluoropyridin-4-yl)azetidin-3-yl)phenyl)ethyl)acetamide]: 1.45 µM; for `CC(=O)N[C@@H](C)c1ccc(C2CN(c3ccnc(OCC(F)F)c3)C2)cc1` [Example 5.2]: 1.22 µM.
`CC(=O)N[C@@H](C)c1ccc(C2CN(c3ccnc(OCC4CC4)c3)C2)cc1` [Example 5.3]: the IC50 is 1.59 µM.
`CCCOc1ncnc(N2CC(c3ccc([C@H](C)NC(C)=O)cc3)C2)c1Cl` [Example 5.4] had an IC50 of 0.68 µM.
The same measure for `CC(=O)N[C@@H](C)c1ccc(C2CN(c3ncnc(OCC4CC4)c3Cl)C2)cc1` [Example 5.5]: 0.38 µM; for `CC(=O)N[C@@H](C)c1ccc(C2CN(c3ncnc(OCC4CC4(F)F)c3F)C2)cc1` (some centres unmarked) [Example 5.6]: 0.54 µM; for `CC(=O)N[C@@H](C)c1ccc(C2CN(c3ncnc(OCC4CC4)c3F)C2)cc1` [Example 5.7]: 0.4 µM.

The IC50 is the concentration at which inhibition is half-maximal. A higher IC50 goes with a need for much substance.
